Experimental data: patent publication EP0700399B1, “36-DERIVATIVES OF RIFAMYCINS AND THEIR USE AS ANTIMICROBIAL AGENTS” (GRUPPO LEPETIT S.P.A., priority 1993, dated 1994)
Where two headings read alike, the source gives them in different places.

Experiments:
Staphylococcus aureus = assay: MIC by broth microdilution; assay type: cell-based; conditions: internal code L165; for MIC: Staphylococcus aureus, read-out: MIC of the compounds
Staph. aureus rifa-r^(1) = assay: MIC by broth microdilution; assay type: cell-based; conditions: for MIC of the compounds: internal code L721, rifampicin resistant strain, moderately resistant; for MIC: Staphylococcus aureus, read-out: MIC of the compounds
Staph. aureus rifa-r^(2) = assay: MIC by broth microdilution; assay type: cell-based; conditions: for MIC of the compounds: internal code L1282, rifampicin resistant strain, highly resistant; for MIC: Staphylococcus aureus, read-out: MIC of the compounds
[1] = test system: Staph. epidermidis ATCC 12228; assay: MIC by broth microdilution; assay type: cell-based; conditions: internal code L147; for MIC: Staphylococcus epidermidis, ATCC12228, read-out: MIC of the compounds
[2] = test system: Staph. haemolyticus rifa-r^(2); assay: MIC by broth microdilution; assay type: cell-based; conditions: for MIC of the compounds: internal code L602, rifampicin resistant strain, highly resistant; for MIC: Staphylococcus haemolyticus, read-out: MIC of the compounds
Streptococcus pyogenes = assay: MIC by broth microdilution; assay type: cell-based; conditions: internal code L49; for MIC: Streptococcus pyogenes, read-out: MIC of the compounds
Strept. pneumoniae = assay: MIC by broth microdilution; assay type: cell-based; conditions: internal code L44; for MIC: Streptococcus pneumoniae, read-out: MIC of the compounds
[3] = test system: Enterococc. faecalis ATCC 7080; assay: MIC by broth microdilution; assay type: cell-based, Enterococcus faecalis; conditions: internal code L149; for MIC: Enterococcus faecalis, ATCC7080, read-out: MIC of the compounds
[4] = test system: Propionibact. acnes ATCC 6919; assay: MIC by broth microdilution; assay type: cell-based, Propionibacterium acnes; conditions: internal code L1014, anaerobic, 48 hours
[5] = test system: Bacteroides fragilis ATCC 23745; assay: MIC by broth microdilution; assay type: cell-based; conditions: internal code L1010, anaerobic, 48 hours
Neisseria gonorrhoeae = assay: MIC by broth microdilution; assay type: cell-based; conditions: internal code L997, 5% carbon dioxide, 48 hours; for MIC: Neisseria gonorrhoeae, read-out: MIC of the compounds
[6] = test system: Haemoph. influenzae ATCC 19418; assay: MIC by broth microdilution; assay type: cell-based, Haemophilus influenzae; conditions: internal code L970, 5% carbon dioxide, 48 hours; for MIC: Haemophilus influenzae, ATCC19418, read-out: MIC of the compounds
Escherichia coli = assay: MIC by broth microdilution; assay type: cell-based; conditions: internal code L47; for MIC: Escherichia coli, read-out: MIC of the compounds
[7] = test system: Esch. coli K12 hyperpermeable; assay: MIC by broth microdilution; assay type: cell-based, Escherichia coli; conditions: internal code G1640; hyperpermeable
[8] = test system: Esch. coli K12 rifa-r^(1); assay: MIC by broth microdilution; assay type: cell-based, Escherichia coli; conditions: internal code G1064; rifampicin resistant strain, moderately resistant
[9] = test system: Proteus vulgaris ATCC 881; assay: MIC by broth microdilution; assay type: cell-based; conditions: internal code L79; for MIC: Proteus vulgaris, ATCC881, read-out: MIC of the compounds
[10] = test system: Pseudomonas aerug. ATCC10145; assay: MIC by broth microdilution; assay type: cell-based, Pseudomonas aeruginosa; conditions: internal code L4; for MIC: Pseudomonas, ATCC10145, read-out: MIC of the compounds
Staph. aureus Smith = assay: MIC by broth microdilution; assay type: cell-based; conditions: internal code L819
[11] = test system: Bacteroides fragilis ATCC 25285; assay: MIC by broth microdilution; assay type: cell-based; conditions: internal code L1011, anaerobic, 48 hours
[12] = test system: Staphylococcus aureus Smith (Int. code L 819); assay: Experimental septicemia in mice; assay type: in vivo; conditions: Staphylococcus aureus, 168 h, treated once immediately after infection, survival on the 7th day
Description: Some compounds of the invention were also tested in experimental septicemia in mice infected with Staphylococcus aureus Smith (Int. code L 819). For this purpose, groups of five mice were infected intraperitoneally with about 1 x 10^6 CFU of S. aureus Smith suspended in 0.5 ml of Difco bacteriological mucin. Untreated animals died within 48 hours. The other animals were treated once immediately after infection. On the 7th day the value of ED50 (expressed in mg/kg) was calculated by the method of Spearman-[…]., Statistical method in biological assay, page 254, C. Griffin Ltd., London, 1952), on the basis of the percentage of animals surviving at each dose.

[13] = sc, subcutaneous, read-out: ED50 SC route

Compound | MIC of the compounds (Staphylococcus aureus) | MIC of the compounds (Staph. aureus rifa-r^(1)) | MIC of the compounds (Staph. aureus rifa-r^(2)) | MIC of the compounds [1] | MIC of the compounds [2] | MIC of the compounds (Streptococcus pyogenes) | MIC of the compounds (Strept. pneumoniae) | MIC of the compounds [3] | MIC of the compounds [4] | MIC of the compounds (Neisseria gonorrhoeae) | MIC of the compounds [6] | MIC of the compounds (Escherichia coli) | MIC of the compounds [9] | MIC of the compounds [10] | MIC (Staphylococcus aureus) | MIC (Staph. aureus rifa-r^(1)) | MIC (Staph. aureus rifa-r^(2)) | MIC [1] | MIC [2] | MIC (Streptococcus pyogenes) | other results
36-Bromo-2'-(diethylamino)rifamycin P [Compound C9] | 0.06 µg/mL | 8 µg/mL | > 128 µg/mL | 0.06 µg/mL | ≥ 128 µg/mL | 0.13 µg/mL | 0.13 µg/mL | 2 µg/mL | 0.06 µg/mL | 0.5 µg/mL | 0.25 µg/mL | 16 µg/mL | 32 µg/mL | 16 µg/mL |  |  |  |  |  |  | MIC of the compounds [5]: 0.13 µg/mL; MIC of the compounds [7]: 2 µg/mL; MIC of the compounds [8]: > 128 µg/mL
36-{[1-Ethyl-1,4-dihydro-1-methyl-4-oxo-1,8-naphthyridin-3-yl)carbonyloxy}-3-{[(4-methyl-1-piperazinyl)imino]methyl}rifamycin SV [Compound C27] | 0.03 µg/mL | 0.25 µg/mL | 16 µg/mL | 0.016 µg/mL | 16 µg/mL | 0.008 µg/mL | 0.008 µg/mL | 2 µg/mL | 0.03 µg/mL | 0.13 µg/mL | 0.25 µg/mL | 32 µg/mL | 16 µg/mL | 32 µg/mL |  |  |  |  |  |  | MIC of the compounds (Staph. aureus Smith): 0.016 µg/mL; MIC of the compounds [11]: 0.13 µg/mL
CCn1cc(C(=O)OCC(=O)O[C@H]2[C@H](C)[C@H](O)[C@H](C)[C@@H](O)[C@@H](C)/C=C/C=C(/C)C(=O)NC3=CC(=O)c4c(c(O)c(C)c5c4C(=O)[C@@](C)(O/C=C/[C@H](OC)[C@H]2C)O5)C3=O)c(=O)c2cc(F)c(N3CCN(C)CC3)cc21 [Compound C23, 36-{2-[1-Ethyl-6-fluoro-1,4-dihydro-7-(4-methyl-1-piperazinyl)-4-oxo-3-quinolinyl]carbonyloxy} rifamycin S] |  |  |  |  |  |  |  |  |  |  |  |  |  |  | 0.06 µg/mL | 0.06 µg/mL | 1 µg/mL | 0.06 µg/mL | 4 µg/mL | 0.004 µg/mL | MIC (Strept. pneumoniae): 0.004 µg/mL; MIC [3]: 0.13 µg/mL; MIC ([4]; Cutibacterium acnes, ATCC6919, read-out: MIC of the compounds): 2 µg/mL; MIC ([5]; Bacteroides fragilis, ATCC23745, read-out: MIC of the compounds): 8 µg/mL; MIC (Neisseria gonorrhoeae): 8 µg/mL; MIC [6]: 2 µg/mL; MIC (Escherichia coli): 128 µg/mL; MIC [9]: 128 µg/mL; MIC [10]: > 128 µg/mL; ED50 [12, 13]: 32.9 mg/kg
CCn1cc(C(=O)OCC(=O)O[C@H]2[C@H](C)[C@H](O)[C@H](C)[C@@H](O)[C@@H](C)/C=C/C=C(/C)C(=O)Nc3c(C=NN4CCN(C)CC4)c(O)c4c5c(c(C)c(O)c4c3O)O[C@](C)(O/C=C/[C@H](OC)[C@H]2C)C5=O)c(=O)c2cc(F)c(N3CCN(C)CC3)cc21 [Compound C25, 36-{[1-Ethyl-6-fluoro-1,4-dihydro-7-(4-methyl-1-piperazinyl)-4-oxo-3-quinolinyl]carbonyloxy}-3-{[(4-methyl-1-piperazinyl)imino]methyl}rifamycin SV] |  |  |  |  |  |  |  |  |  |  |  |  |  |  | 0.06 µg/mL | 0.13 µg/mL | 1 µg/mL | 0.13 µg/mL | 1 µg/mL | 0.03 µg/mL | MIC (Staph. aureus Smith; Staphylococcus aureus, read-out: MIC of the compounds): 0.06 µg/mL; MIC (Strept. pneumoniae): 0.016 µg/mL; MIC [3]: 2 µg/mL; MIC ([11]; Bacteroides fragilis, ATCC25285, read-out: MIC of the compounds): 2 µg/mL; MIC (Neisseria gonorrhoeae): 0.5 µg/mL; MIC [6]: 1 µg/mL; MIC (Escherichia coli): 64 µg/mL; MIC [9]: 64 µg/mL; MIC [10]: 128 µg/mL; ED50 ([12]; intravenous, read-out: ED50 IV route): 2.9 mg/kg; ED50 [12, 13]: 4.7 mg/kg
